From publication PMC4366281 (Nature chemical biology, 2015)

Target: T1, MtbVKOR (Mycobacterium tuberculosis, UniProt I6X5W1)
T1 sequence (I6X5W1 1-210): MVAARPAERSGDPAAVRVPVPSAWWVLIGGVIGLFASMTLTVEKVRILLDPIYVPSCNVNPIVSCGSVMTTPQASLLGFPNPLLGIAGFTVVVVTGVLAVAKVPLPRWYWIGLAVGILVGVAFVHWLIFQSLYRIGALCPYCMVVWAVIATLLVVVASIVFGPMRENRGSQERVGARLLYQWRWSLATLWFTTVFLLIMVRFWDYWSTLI
Assay: HTS agar 384-well X-Gal assay, MtbVKOR-complemented E. coli dsbB null strain
Type: cell-based
Conditions: agar assay / re-test

Compound: O=C1c2ccccc2C(=O)C1c1ccc(Br)cc1 [brominedione]
- inhibition of MtbVKOR-dependent E. coli strain: specific hit
